pEC50: −log10 of the molar value.
Each compound was assayed against REV-ERBα LBD (Homo sapiens, UniProt P20393, DEL324-422) (assay: biochemical). Conditions: FRET assay; 6xHistag-REV-ERBα LBD with FITC-labeled SMRT corepressor peptide; read-out: REVERBα (Agonism of REV-ERBα, EC50).
Description: TR-FRET corepressor interaction assay. The time-resolved fluorescence resonance energy transfer (TR-FRET) assay was performed in black low-volume 384-well plates (Greiner). Each well contained 4 nM 6×Histag-REV-ERBα LBD (human; residues 281-614 A324-422) or 6×Histag-REV-ERBα LBD (human; residues 381-579) protein expressed in and purified from Escherichia coli using nickel affinity and size exclusion chromatography; 1 nM LanthaScreen Elite Tb-anti-HIS Antibody (Thermo Fisher Scientific); and 400 nM FITC-labeled peptide derived from the SMRT corepressor ([…]) containing a N-terminal FITC label with a six-carbon linker (Ahx) and an amidated C-terminus for stability (synthesized by LifeTein) in TR-FRET buffer (20 mM potassium phosphate, pH 7.4, 50 mM potassium chloride, 1 mM dithiothreitol, and 0.005% Tween-20). Ligand stocks were prepared via serial dilution in DMSO, added to wells in triplicate, and plates were incubated at 4° C. for 2 h and read using a BioTek Synergy Neo multimode plate reader. The Tb donor was excited at 340 nm; its fluorescence emission was monitored at 495 nm, and the acceptor FITC emission was measured at 520 nm; and the TR-FRET ratio was calculated as the signal at 520 nm divided by the signal at 495 nm. Data were plotted using GraphPad Prism as TR-FRET ratio vs. ligand concentration and fit to sigmoidal dose response curve equation.
Exemplary compounds of the present disclosure were assayed as described above to assess agonism of REV-ERBα. Results of the FRET assay are shown in Table 2 below (A: EC50<100 nM; B: EC50 100 nM-1000 nM; C: EC50>1000 nM; NT: not tested).

Sequence of REV-ERBα LBD (P20393 with tags, fused parts or gaps DEL324-422): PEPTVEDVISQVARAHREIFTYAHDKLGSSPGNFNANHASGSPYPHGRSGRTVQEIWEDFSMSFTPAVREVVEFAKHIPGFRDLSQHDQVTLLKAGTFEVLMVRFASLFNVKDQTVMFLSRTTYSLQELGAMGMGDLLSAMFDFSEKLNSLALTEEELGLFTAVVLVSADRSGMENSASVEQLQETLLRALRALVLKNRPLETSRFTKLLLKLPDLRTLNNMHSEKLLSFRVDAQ
Sequence of REV-ERBα LBD (Q9Y618 2335-2356 partner limits assumed): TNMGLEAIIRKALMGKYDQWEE

Row | SMILES | pEC50
1 | CC(C)(C)Cn1cc([C@H](NS(=O)(=O)C2CC2)C(F)F)c2cc(F)c(-c3cc(F)cnc3C(F)F)cc21 [Compound 123, (S)—N-(1-(6-(2-(difluoromethyl)-5-fluoropyridin-3-yl)-5-fluoro-1-neopentyl-1H-indol-3-yl)-2,2-difluoroethyl)cyclopropanesulfonamide] | > 7.00
2 | CC(C)(C)Cn1cc([C@H](NS(=O)(=O)C2CC2)C(F)(F)F)c2cc(F)c(-c3ccccc3OC(F)(F)F)cc21 [Compound 5, (S)—N-(2,2,2-trifluoro-1-(5-fluoro-1-neopentyl-6-(2-(trifluoromethoxy)phenyl)-H-indol-3-yl)ethyl)cyclopropanesulfonamide] | > 7.00
3 | CC(NS(=O)(=O)C1CC1)c1cn(CC(C)(C)C)c2cc(C3CCOCC3)ccc12 (single isomer, unassigned) [Compound 24, (S or R) N-(1-(1-neopentyl-6-(tetrahydro-2H-pyran-4-yl)-1H-indol-3-yl)ethyl)cyclopropanesulfonamide] | 6.00 to 7.00
4 | COc1cccc(C#N)c1-c1ccc2c([C@H](NS(=O)(=O)C3CCC3)C(F)(F)F)cn(CC(C)(C)C)c2c1 [Compound 6, (S)—N-(1-(6-(2-cyano-6-methoxyphenyl)-1-neopentyl-1H-indol-3-yl)-2,2,2-trifluoroethyl)cyclobutanesulfonamide] | 6.00 to 7.00
5 | CC(C)(C)Cn1cc([C@H](NS(=O)(=O)C2CC2)C(F)F)c2ccc(-c3ncccc3Cl)cc21 [Compound 85, (S)—N-(1-(6-(3-chloropyridin-2-yl)-1-neopentyl-1H-indol-3-yl)-2,2-difluoroethyl)cyclopropanesulfonamide] | > 7.00
6 | Cc1ccc(-c2cc3c(cc2F)c([C@H](NS(=O)(=O)C2CC2)C(F)F)cn3CC(C)(C)C)c(C(F)(F)F)n1 [Compound 139, (S)—N-(2,2-difluoro-1-(5-fluoro-6-(6-methyl-2-(trifluoromethyl)pyridin-3-yl)-1-neopentyl-1H-indol-3-yl)ethyl)cyclopropanesulfonamide] | > 7.00
7 | Cc1cnc(C(F)(F)F)c(-c2nc3c(cc2F)c([C@H](NS(=O)(=O)C2CC2)C(F)F)cn3C2CCC2)c1 [Compound 157, (S)—N-(1-(1-cyclobutyl-5-fluoro-6-(5-methyl-2-(trifluoromethyl)pyridin-3-yl)-1H-pyrrolo[2,3-b]pyridin-3-yl)-2,2-difluoroethyl)cyclopropanesulfonamide] | > 7.00
8 | CC(C)(C)Cn1cc(C(NS(=O)(=O)C23CC(C2)C3)C(F)F)c2cc(F)c(-c3ccccc3C(F)(F)F)cc21 (stereo not drawn) [Compound 41, N-(2,2-difluoro-1-(5-fluoro-1-neopentyl-6-(2-(trifluoromethyl)phenyl)-1H-indol-3-yl)ethyl)bicyclo[1.1.1]pentane-1-sulfonamide] | > 7.00
9 | O=S(=O)(N[C@@H](c1cn(C2CCC2)c2nc(-c3cc(Cl)cnc3C(F)(F)F)c(F)cc12)C(F)F)C1CC1 [Compound 165, (S)—N-(1-(6-(5-chloro-2-(trifluoromethyl)pyridin-3-yl)-1-cyclobutyl-5-fluoro-1H-pyrrolo[2,3-b]pyridin-3-yl)-2,2-difluoroethyl)cyclopropanesulfonamide] | > 7.00
10 | CC(C)(C)Cn1cc([C@H](NS(=O)(=O)C2CC2)C(F)F)c2cc(F)c(-c3cc(F)cnc3C(F)(F)F)cc21 [Compound 132, (S)—N-(2,2-difluoro-1-(5-fluoro-6-(5-fluoro-2-(trifluoromethyl)pyridin-3-yl)-1-neopentyl-1H-indol-3-yl)ethyl)cyclopropanesulfonamide] | > 7.00
11 | CC(C)(C)Cn1cc([C@H](NS(=O)(=O)C2CC2)C(F)F)c2cc(F)c(-c3cccnc3C(F)F)cc21 [Compound 97, (S)—N-(1-(6-(2-(difluoromethyl)pyridin-3-yl)-5-fluoro-1-neopentyl-1H-indol-3-yl)-2,2-difluoroethyl)cyclopropanesulfonamide] | > 7.00
12 | CC(C)(C)Cn1cc([C@H](NS(=O)(=O)C2CC2)C(F)F)c2cc(F)c(-c3ncc(C#N)cc3C(F)(F)F)cc21 [Compound 138, (S)—N-(1-(6-(5-cyano-3-(trifluoromethyl)pyridin-2-yl)-5-fluoro-1-neopentyl-1H-indol-3-yl)-2,2-difluoroethyl)cyclopropanesulfonamide] | > 7.00
13 | CC(NS(=O)(=O)C1CC1)c1cn(CC(C)(C)C)c2cc(-c3cnccc3C#N)c(F)cc12 (single isomer, unassigned) [Compound 32, (R or S) N-(1-(6-(4-cyanopyridin-3-yl)-5-fluoro-1-neopentyl-1H-indol-3-yl)ethyl)cyclopropanesulfonamide] | > 7.00
14 | CN(C)S(=O)(=O)N[C@@H](c1cn(CC(C)(C)C)c2cc(-c3c(C#N)cccc3C(F)(F)F)ccc12)C(F)F [Compound 75] | > 7.00
15 | CC(C)(C)Cn1cc([C@H](NS(=O)(=O)C2CC2)C(F)F)c2ccc(-c3c(F)cccc3C(F)F)cc21 [Compound 104, (S)—N-(1-(6-(2-(difluoromethyl)-6-fluorophenyl)-1-neopentyl-1H-indol-3-yl)-2,2-difluoroethyl)cyclopropanesulfonamide] | > 7.00
16 | CC(C)(C)Cn1cc([C@H](NS(=O)(=O)C2CC2)C(F)F)c2ccc(-c3ncc(F)cc3C(F)(F)F)cc21 [Compound 53, (S)—N-(2,2-difluoro-1-(6-(5-fluoro-3-(trifluoromethyl)pyridin-2-yl)-1-neopentyl-1H-indol-3-yl)ethyl)cyclopropanesulfonamide] | > 7.00
17 | CC(NS(=O)(=O)C1CC1)c1cn(CC(C)(C)C)c2cc(-c3cccnc3C(F)(F)F)c(F)cc12 (single isomer, unassigned) [Compound 28, N-[1-[1-(2,2-dimethylpropyl)-5-fluoro-6-[2-(trifluoromethyl)-3-pyridyl]indol-3-yl]ethyl]cyclopropanesulfonamide] | > 7.00
18 | CC(C)(C)Cn1cc([C@H](NS(=O)(=O)C2CC2)C(F)F)c2cc(F)c(-c3ccncc3C(F)(F)F)cc21 [Compound 114, (S)—N-(2,2-difluoro-1-(5-fluoro-1-neopentyl-6-(3-(trifluoromethyl)pyridin-4-yl)-1H-indol-3-yl)ethyl)cyclopropanesulfonamide] | > 7.00
19 | O=S(=O)(N[C@@H](c1cn(C2CCC2)c2cc(-c3ccc(F)cc3C(F)(F)F)c(F)cc12)C(F)F)C1CC1 [Compound 154, (S)—N-(1-(1-cyclobutyl-5-fluoro-6-(4-fluoro-2-(trifluoromethyl)phenyl)-1H-indol-3-yl)-2,2-difluoroethyl)cyclopropanesulfonamide] | > 7.00
20 | Cc1ccnc(C(F)F)c1-c1ccc2c([C@H](NS(=O)(=O)C3CC3)C(F)F)cn(CC(C)(C)C)c2c1 [Compound 128, (S)—N-(1-(6-(2-(difluoromethyl)-4-methylpyridin-3-yl)-1-neopentyl-1H-indol-3-yl)-2,2-difluoroethyl)cyclopropanesulfonamide] | > 7.00
21 | CC(C)S(=O)(=O)N[C@@H](c1cn(CC(C)(C)C)c2cc(-c3cccnc3C(F)(F)F)c(F)cc12)C(F)F [Compound 42, (S)—N-(2,2-difluoro-1-(5-fluoro-1-neopentyl-6-(2-(trifluoromethyl)pyridin-3-yl)-1H-indol-3-yl)ethyl)propane-2-sulfonamide] | > 7.00

Reference: patent US20260285846A1, “REV-ERB AGONISTS FOR TH17-MEDIATED INFLAMMATORY DISORDERS” (UNIVERSITY OF FLORID RESEARCH FOUNDATION, iNCORPORATED, priority 2021, published 2026)
